Legend:
Assay in all cases: NCI-60 single-dose screen
Type in all cases: cell-based
DU-145 = settings: Homo sapiens, single dose 10 µM, '-' = no inhibition, read-out: % Growth Inhibition
In short: (§1)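 NCI DTP single-dose screen; 10 μM compound; 60-line panel, nine cancer types.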

A549/ATCC = settings: Homo sapiens, single dose 10 µM, '-' = no inhibition, read-out: % Growth Inhibition
In short: as §1

HT29 = settings: Homo sapiens, HT-29, single dose 10 µM, '-' = no inhibition, read-out: % Growth Inhibition
In short: as §1

MALME-3M = settings: Homo sapiens, single dose 10 µM, '-' = no inhibition, read-out: % Growth Inhibition
In short: as §1

SNB-75 = settings: Homo sapiens, single dose 10 µM, '-' = no inhibition, read-out: % Growth Inhibition
In short: as §1

SF-539 = settings: Homo sapiens, single dose 10 µM, '-' = no inhibition, read-out: % Growth Inhibition
In short: as §1

HCT-15 = settings: Homo sapiens, single dose 10 µM, '-' = no inhibition, read-out: % Growth Inhibition
In short: as §1

786-0 = settings: Homo sapiens, single dose 10 µM, '-' = no inhibition, read-out: % Growth Inhibition
In short: as §1

U251 = settings: Homo sapiens, U-251, single dose 10 µM, '-' = no inhibition, read-out: % Growth Inhibition
In short: as §1

HOP-62 = settings: Homo sapiens, single dose 10 µM, '-' = no inhibition, read-out: % Growth Inhibition
In short: as §1

UACC-257 = settings: Homo sapiens, single dose 10 µM, '-' = no inhibition, read-out: % Growth Inhibition
In short: as §1

KM12 = settings: Homo sapiens, single dose 10 µM, '-' = no inhibition, read-out: % Growth Inhibition
In short: as §1

HOP-92 = settings: Homo sapiens, single dose 10 µM, '-' = no inhibition, read-out: % Growth Inhibition
In short: as §1

MDA-MB231/ATCC = settings: Homo sapiens, MDA-MB-231, single dose 10 µM, '-' = no inhibition, read-out: % Growth Inhibition
In short: as §1

NCI-H322M = settings: Homo sapiens, single dose 10 µM, '-' = no inhibition, read-out: % Growth Inhibition
In short: as §1

T-47D = settings: Homo sapiens, T47D, single dose 10 µM, '-' = no inhibition, read-out: % Growth Inhibition
In short: as §1

COLO 205 = settings: Homo sapiens, single dose 10 µM, '-' = no inhibition, read-out: % Growth Inhibition
In short: as §1

MOLT-4 = settings: Homo sapiens, single dose 10 µM, '-' = no inhibition, read-out: % Growth Inhibition
In short: as §1

EKVX = settings: Homo sapiens, single dose 10 µM, '-' = no inhibition, read-out: % Growth Inhibition
In short: as §1

CAKI-1 = settings: Homo sapiens, single dose 10 µM, '-' = no inhibition, read-out: % Growth Inhibition
In short: as §1

ACHN 1 = settings: Homo sapiens, single dose 10 µM, '-' = no inhibition, read-out: % Growth Inhibition
In short: as §1

MDA-MB-468 = settings: Homo sapiens, single dose 10 µM, '-' = no inhibition, read-out: % Growth Inhibition
In short: as §1

UACC-62 = settings: Homo sapiens, single dose 10 µM, '-' = no inhibition, read-out: % Growth Inhibition
In short: as §1

NCI-H460 = settings: Homo sapiens, single dose 10 µM, '-' = no inhibition, read-out: % Growth Inhibition
In short: as §1

SK-OV-3 = settings: Homo sapiens, single dose 10 µM, '-' = no inhibition, read-out: % Growth Inhibition
In short: as §1

NCI/ADR-RES = settings: Homo sapiens, single dose 10 µM, '-' = no inhibition, read-out: % Growth Inhibition
In short: as §1

SNB-19 = settings: Homo sapiens, single dose 10 µM, '-' = no inhibition, read-out: % Growth Inhibition
In short: as §1

OVCAR-3 = settings: Homo sapiens, single dose 10 µM, '-' = no inhibition, read-out: % Growth Inhibition
In short: as §1

TK-10 = settings: Homo sapiens, single dose 10 µM, '-' = no inhibition, read-out: % Growth Inhibition
In short: as §1

M14 = settings: Homo sapiens, single dose 10 µM, '-' = no inhibition, read-out: % Growth Inhibition
In short: as §1

LOX IMVI = settings: Homo sapiens, single dose 10 µM, '-' = no inhibition, read-out: % Growth Inhibition
In short: as §1

SK-MEL-28 = settings: Homo sapiens, single dose 10 µM, '-' = no inhibition, read-out: % Growth Inhibition
In short: as §1

UO-31 = settings: Homo sapiens, single dose 10 µM, '-' = no inhibition, read-out: % Growth Inhibition
In short: as §1

BT-549 = settings: Homo sapiens, single dose 10 µM, '-' = no inhibition, read-out: % Growth Inhibition
In short: as §1

SW-620 = settings: Homo sapiens, single dose 10 µM, '-' = no inhibition, read-out: % Growth Inhibition
In short: as §1

NCI-H23 = settings: Homo sapiens, single dose 10 µM, '-' = no inhibition, read-out: % Growth Inhibition
In short: as §1

RXF 393 = settings: Homo sapiens, single dose 10 µM, '-' = no inhibition, read-out: % Growth Inhibition
In short: as §1

RPMI-8226 = settings: Homo sapiens, single dose 10 µM, '-' = no inhibition, read-out: % Growth Inhibition
In short: as §1

SR = settings: Homo sapiens, single dose 10 µM, '-' = no inhibition, read-out: % Growth Inhibition
In short: as §1

OVCAR-4 = settings: Homo sapiens, single dose 10 µM, '-' = no inhibition, read-out: % Growth Inhibition
In short: as §1

PC-3 = settings: Homo sapiens, single dose 10 µM, '-' = no inhibition, read-out: % Growth Inhibition
In short: as §1

NCI-H522 = settings: Homo sapiens, single dose 10 µM, '-' = no inhibition, read-out: % Growth Inhibition
In short: as §1

IGROV1 = settings: Homo sapiens, IGROV-1, single dose 10 µM, '-' = no inhibition, read-out: % Growth Inhibition
In short: as §1

A498 = settings: Homo sapiens, single dose 10 µM, '-' = no inhibition, read-out: % Growth Inhibition
In short: as §1

SF-295 = settings: Homo sapiens, single dose 10 µM, '-' = no inhibition, read-out: % Growth Inhibition
In short: as §1

OVCAR-5 = settings: Homo sapiens, single dose 10 µM, '-' = no inhibition, read-out: % Growth Inhibition
In short: as §1

HL-60(TB) = settings: Homo sapiens, single dose 10 µM, '-' = no inhibition, read-out: % Growth Inhibition

COc1ccc(CSc2nc(-c3ccc(Cl)cc3)cc(-c3ccc(OC)c(OC)c3)n2)cc1 [Compound 29, 2-(4-Methoxybenzylthio)-4-(4-chlorophenyl)-6-(3,4-dimethoxyphenyl)pyrimidine] was tested, and the inhibition at 10 µM (DU-145) was 28.6%, the inhibition at 10 µM (A549/ATCC) was 30.1% and the inhibition at 10 µM (HT29) was 38%. For the same molecule, the inhibition at 10 µM (MALME-3M) was 4.95%, the inhibition at 10 µM (SNB-75) was 1.93% and the inhibition at 10 µM (SF-539) was 14.7%. For the same molecule, the inhibition at 10 µM (HCT-15) was 42.1%, the inhibition at 10 µM (786-0) was 11.6% and the inhibition at 10 µM (U251) was 23.3%. For the same molecule, the inhibition at 10 µM (HOP-62) was 16.4%, the inhibition at 10 µM (UACC-257) was 0.85% and the inhibition at 10 µM (KM12) was 24.8%. It also gave an inhibition at 10 µM (HOP-92) of 20.6%, an inhibition at 10 µM (MDA-MB231/ATCC) of 30.3% and an inhibition at 10 µM (NCI-H322M) of 17.4%. For the same molecule, the inhibition at 10 µM (T-47D) was 34.6%, the inhibition at 10 µM (COLO 205) was 11.3% and the inhibition at 10 µM (MOLT-4) was 46.5%. The inhibition at 10 µM (EKVX) was 29.7%, the inhibition at 10 µM (CAKI-1) was 23.1% and the inhibition at 10 µM (ACHN 1) was 13.2%. The inhibition at 10 µM (MDA-MB-468) was 40.2%, the inhibition at 10 µM (UACC-62) was 38.7% and the inhibition at 10 µM (NCI-H460) was 21.2%. The inhibition at 10 µM (SK-OV-3) was 13.9%, the inhibition at 10 µM (NCI/ADR-RES) was 32.1% and the inhibition at 10 µM (SNB-19) was 14.2%. For the same molecule, the inhibition at 10 µM (OVCAR-3) was under 0%, the inhibition at 10 µM (TK-10) was under 0% and the inhibition at 10 µM (M14) was 19.3%. The inhibition at 10 µM (LOX IMVI) was 20.9%, the inhibition at 10 µM (SK-MEL-28) was 11.3% and the inhibition at 10 µM (UO-31) was 33.1%. The inhibition at 10 µM (BT-549) was 21.4%, the inhibition at 10 µM (SW-620) was 12.7% and the inhibition at 10 µM (NCI-H23) was 14.6%. It also gave an inhibition at 10 µM (RXF 393) of 24.2%, an inhibition at 10 µM (RPMI-8226) of 36.9% and an inhibition at 10 µM (SR) of 45.8%. The inhibition at 10 µM (OVCAR-4) was 21.9%, the inhibition at 10 µM (PC-3) was 36.4% and the inhibition at 10 µM (NCI-H522) was 23.1%. It also gave an inhibition at 10 µM (IGROV1) of 6.14%, an inhibition at 10 µM (A498) of under 0% and an inhibition at 10 µM (SF-295) of 16.7%. It also gave an inhibition at 10 µM (OVCAR-5) of 7.38% and an inhibition at 10 µM (HL-60(TB)) of 38.8%.

From article PMC11576293, “New series of 4,6-diaryl pyrimidines: facile synthesis and antiproliferative activity as dual EGFR/VEGFR-2 inhibitors” (Frontiers in Chemistry, 2024)
